For assay [1], the target named is T1, 3-hydroxy-3-methylglutaryl-coenzyme A reductase (Rattus norvegicus) (UniProt P51639).
T1 sequence (whole entry): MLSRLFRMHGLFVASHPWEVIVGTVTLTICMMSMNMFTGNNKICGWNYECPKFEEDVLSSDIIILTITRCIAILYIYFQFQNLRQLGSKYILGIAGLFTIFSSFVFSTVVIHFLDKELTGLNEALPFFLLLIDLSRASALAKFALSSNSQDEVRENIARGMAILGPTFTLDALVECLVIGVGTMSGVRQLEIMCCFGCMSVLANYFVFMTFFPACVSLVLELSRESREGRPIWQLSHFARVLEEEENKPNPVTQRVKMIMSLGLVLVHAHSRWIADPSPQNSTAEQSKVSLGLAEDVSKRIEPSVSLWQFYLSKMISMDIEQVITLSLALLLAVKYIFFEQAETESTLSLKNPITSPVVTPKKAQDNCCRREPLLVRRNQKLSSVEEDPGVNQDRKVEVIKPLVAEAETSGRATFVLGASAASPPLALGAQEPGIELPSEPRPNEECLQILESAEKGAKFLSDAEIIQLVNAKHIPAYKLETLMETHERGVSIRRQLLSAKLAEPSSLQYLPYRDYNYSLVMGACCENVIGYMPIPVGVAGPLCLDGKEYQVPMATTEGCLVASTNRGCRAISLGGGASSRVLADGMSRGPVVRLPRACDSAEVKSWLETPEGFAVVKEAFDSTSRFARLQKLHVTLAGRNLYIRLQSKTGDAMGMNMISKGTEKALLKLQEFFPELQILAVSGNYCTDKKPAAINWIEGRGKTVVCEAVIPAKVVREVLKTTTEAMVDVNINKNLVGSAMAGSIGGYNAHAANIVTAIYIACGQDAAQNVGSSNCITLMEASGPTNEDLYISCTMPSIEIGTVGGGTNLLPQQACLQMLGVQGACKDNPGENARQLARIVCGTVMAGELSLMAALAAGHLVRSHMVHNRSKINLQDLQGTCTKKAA
Briefly: In vivo hepatic cholesterol synthesis inhibitory activity in male Sprague-Dawley rat after oral administration at a concentration of 0.2 mg/kg. The arrangement: dose 0.2 mg/kg. It is filed as functional, organism-based.

Assay [2] addresses T2, 3-hydroxy-3-methylglutaryl-coenzyme A reductase (Rattus norvegicus, UniProt P51639).
T2 sequence (P51639 whole entry): T1 sequence (whole entry)
The assay can be described thus: In vitro HMG-CoA reductase inhibitory activity to inhibit sterol synthesis in cell free system in rat.

Assay [3] concerns the target T1, 3-hydroxy-3-methylglutaryl-coenzyme A reductase (Rattus norvegicus). Briefly: In vivo hepatic cholesterol synthesis inhibitory activity in male Sprague-Dawley rat after oral administration at a concentration of 2.0 mg/kg. It is filed as functional, organism-based. Details: dose 2 mg/kg.
For assay [4], the target named is T3, 3-hydroxy-3-methylglutaryl-coenzyme A reductase (Homo sapiens) (UniProt P04035).
T3 sequence (whole entry): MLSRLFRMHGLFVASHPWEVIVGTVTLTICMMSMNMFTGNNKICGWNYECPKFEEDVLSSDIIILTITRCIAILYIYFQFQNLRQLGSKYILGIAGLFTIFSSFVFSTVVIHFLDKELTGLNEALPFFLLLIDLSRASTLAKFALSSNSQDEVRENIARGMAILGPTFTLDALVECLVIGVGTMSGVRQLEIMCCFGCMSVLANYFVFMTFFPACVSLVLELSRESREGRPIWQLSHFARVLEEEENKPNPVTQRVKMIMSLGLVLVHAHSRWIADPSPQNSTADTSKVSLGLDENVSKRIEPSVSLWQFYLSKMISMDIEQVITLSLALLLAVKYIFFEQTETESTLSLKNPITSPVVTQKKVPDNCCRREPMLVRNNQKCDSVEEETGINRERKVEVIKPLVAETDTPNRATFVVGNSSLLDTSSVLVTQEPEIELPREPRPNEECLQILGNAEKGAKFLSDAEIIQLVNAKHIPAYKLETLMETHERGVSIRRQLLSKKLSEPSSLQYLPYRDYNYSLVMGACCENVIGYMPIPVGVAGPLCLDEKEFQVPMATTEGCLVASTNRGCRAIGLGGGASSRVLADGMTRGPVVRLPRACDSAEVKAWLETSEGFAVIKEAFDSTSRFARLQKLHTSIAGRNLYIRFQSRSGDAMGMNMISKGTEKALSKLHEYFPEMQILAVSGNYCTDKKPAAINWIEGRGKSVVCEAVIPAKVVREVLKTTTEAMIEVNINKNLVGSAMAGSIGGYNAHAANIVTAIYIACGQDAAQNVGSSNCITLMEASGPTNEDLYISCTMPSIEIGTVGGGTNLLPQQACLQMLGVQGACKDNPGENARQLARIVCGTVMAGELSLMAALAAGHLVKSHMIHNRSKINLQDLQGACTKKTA
The assay can be described thus: In vitro HMG-CoA reductase inhibitory activity required to inhibit cellular steroidgenesis in Hep G2 cells (human hepatoma cell line) with pravastatin as reference compound. Type of assay: cell-based. The following applies: HepG2.

Assay [5] concerns the target T1, 3-hydroxy-3-methylglutaryl-coenzyme A reductase (Rattus norvegicus). Briefly: In vitro rat HMG-CoA reductase inhibitory activity required to inhibit sterol synthesis in cell free system with pravastatin as reference compound.

A word on the inhibition: it is the drop in the measured response relative to a control, in per cent. A word on the IC50: it is the point on the concentration scale where inhibition reaches its midpoint. A low value points to greater potency.

Take `CC[C@H](C)C(=O)O[C@H]1C[C@H](O)C=C2C=C[C@H](C)[C@H](CC[C@@H](O)C[C@@H](O)CC(=O)O)[C@H]21` [PRAVASTATIN SODIUM]: the figures for the inhibition in assay [1] and in assay [3] were 35.4% and 27.8%, respectively. The compound also registered a concentration for half-maximal inhibition (IC50) in assay [2] of 4.2 nM.
Regarding `Cc1nn(Cc2ccccc2)c2nc(C(C)C)c(/C=C/[C@@H](O)C[C@@H](O)CC(=O)O)c(-c3ccc(F)cc3)c12`, the results for the inhibition in assay [1] and in assay [3] were 16.4% and 45.1%, respectively. Moreover, the Relative potency in assay [4] is 17; in assay [5], 63.
The matching figures for `CC(C)c1nc2c(c(C3CC3)nn2C)c(-c2ccc(F)cc2)c1/C=C/[C@@H](O)C[C@@H](O)CC(=O)O`: 42.9%, 71.3%, 1 and 42.
`CC(C)c1nc2cc(-c3ccccc3)nn2c(-c2ccc(F)cc2)c1/C=C/[C@@H](O)C[C@@H](O)CC(=O)O`: the inhibition in assay [1] is -1.4%; in assay [3] it was 24.1%. Besides, the Relative potency in assay [4] came to 3; in assay [5], 12.
The matching figures for `Cc1nn(C)c2nc(C3CC3)c(/C=C/[C@@H](O)C[C@@H](O)CC(=O)O)c(-c3ccc(F)cc3)c12`: 35.5%, 74.3%, 118 and 228.
The like results for `CCc1c(C)sc2nc(C(C)C)c(/C=C/[C@@H](O)C[C@@H](O)CC(=O)O)c(-c3ccc(F)cc3)c12` were, in that order, 7.9%, 20.8%, 51 and 35.
The like results for `CC(C)c1nc2onc(-c3ccccc3)c2c(-c2ccc(F)cc2)c1/C=C/[C@@H](O)C[C@@H](O)CC(=O)O` were, in that order, 33.7%, 52.3%, 1 and 83.
For the compound `O=C(O)C[C@H](O)C[C@H](O)/C=C/c1c(C2CC2)nc2sccc2c1-c1ccc(F)cc1`, the inhibition in assay [1] came out at 38.1%; in assay [3], 70.6%. Further, the values for the Relative potency in assay [4] and in assay [5] were 60 and 229, respectively.
